Test results: US11040053B2, “Compositions and methods for activating “stimulator of interferon gene”13 dependent signalling” (CHINOOK THERAPEUTICS, INC., priority 2015, dated 2021)

What was measured:
hSTING HAQ allele = target: T1, hSTING HAQ allele (Homo sapiens, UniProt Q86WV6, G230A/H232R/R293Q/R71H); test: IRF-3 inducible secreted luciferase reporter in THP1-Dual cells without digitonin; format: cell-based; details: for activity relative to OH reference compound, in words: Table 5 comment, THP1 cells without digitonin; for EC50: without digitonin in THP1 cells (HAQ allele)
T1 construct: a human monocyte cell line containing the hSTING HAQ allele; host or cells: THP1-Dual cells
Protocol: After 30 minutes, cells were washed and fresh RPMI media containing 10% FBS was added, and cells were incubated at 37° C. with 5% CO2 Cell culture supernatants from each sample were collected after overnight incubation, and 10 μL of the cell culture supernatants was added to 50 μL QUANTI-Luc reagent (Invivogen). Type I interferon activation was determined by measuring secreted luciferase levels on a SpectraMax M3 spectrophotometer (Molecular Devices). The EC50 value was determined from the dose-response curve for the 10 concentrations from the serial dilution of the reference compounds and compounds of the invention tested in this assay as listed in Table 5.

hSTING(REF) = hSTING(REF) (Homo sapiens, UniProt Q86WV6); test: Differential scanning fluorometry (DSF) binding to purified hSTING REF allele; design: DNA encoding amino acids 140-379 (amino acid numbering corresponding to Swiss Prot Q86WV6); 6xHIS (N, cleaved yes); SUMO (N, cleaved yes); made in house; host or cells: Rosetta2 (DE3) E. coli; details: for hSTING Tm Shift REF: DSF, 1 mg/ml STING AA140-379, ligand 1 mM; for binding relative to OH reference compound, in words: Table 4 comment, REF allele hSTING
Protocol: (§1) Cells were grown in lysogeny broth at 37° C. until a […] absorbance of 0.6 was reached. […] Cell pellets were re-suspended on ice in a buffer containing 50 mM Tris hydrochloride (Tris-HCl) pH 7.5, 500 mM sodium chloride (NaCl), 20 mM imidazole, 10% glycerol, 1 mM tris(2-carboxyethyl)phosphine hydrochloride (TCEP) and protease inhibitor tablet (Pierce) (Buffer A). Cells were lysed using an S-450D sonifier (Emmerson industrial) on ice. […] Protein was aliquoted, flash frozen in liquid nitrogen and stored at −80° C. until use.
(§2) The protein is heated in the presence of a dye that binds to and fluoresces in hydrophobic environments. The protein is thermally denatured by heating resulting in increased dye binding to the unfolded protein and fluorescence. The temperature midpoint (Tm) of a proteins denaturation is established by calculating the half maximal value of the denaturation curve. The temperature midpoint of the protein in the presence of a ligand is directly related to the affinity of the ligand for the protein and therefore its ability to stabilize the protein at higher temperatures.
(§3) Samples were placed in hard shell PCR plate (Bio-Rad). The fluorescence as a function of temperature was recorded in a CFX 96 real time PCR machine (Bio-Rad) reading on the HEX channel, excitation 450-490, emission 560-580 nm. The temperature gradient was from 15-80° C. ramping 0.5° C. per 15 seconds and recording every 0.5° C. After subtraction of the background signal from a sample lacking protein and ligand. The midpoint temperature (Tm) was calculated by fitting the curves of the fluorescence as a function of temperature to a Boltzmann sigmoidal function (Graph Pad Prism).

HAQ allele hSTING = target: T2, HAQ allele hSTING (Homo sapiens, UniProt Q86WV6, G230A/H232R/R293Q); test: Differential scanning fluorometry (DSF) binding to purified hSTING HAQ allele; details: for hSTING Tm Shift HAQ: DSF, 1 mg/ml STING AA140-379, ligand 1 mM
T2 construct: DNA encoding amino acids 140-379 (amino acid numbering corresponding to Swiss Prot Q86WV6); 6xHIS (N, cleaved yes); SUMO (N, cleaved yes); made in house; host or cells: Rosetta2 (DE3) E. coli
Protocol: as §1, §2, §3

hSTING(WT) = hSTING(WT) (Homo sapiens, UniProt Q86WV6, H232R); test: Differential scanning fluorometry (DSF) binding to purified hSTING WT; design: DNA encoding amino acids 140-379 (amino acid numbering corresponding to Swiss Prot Q86WV6); 6xHIS (N, cleaved yes); SUMO (N, cleaved yes); made in house; host or cells: Rosetta2 (DE3) E. coli; details: for hSTING Tm Shift WT: DSF, 1 mg/ml STING AA140-379, ligand 1 mM
Protocol: as §1, §2, §3

Sequence of hSTING(REF) (Q86WV6 140-379): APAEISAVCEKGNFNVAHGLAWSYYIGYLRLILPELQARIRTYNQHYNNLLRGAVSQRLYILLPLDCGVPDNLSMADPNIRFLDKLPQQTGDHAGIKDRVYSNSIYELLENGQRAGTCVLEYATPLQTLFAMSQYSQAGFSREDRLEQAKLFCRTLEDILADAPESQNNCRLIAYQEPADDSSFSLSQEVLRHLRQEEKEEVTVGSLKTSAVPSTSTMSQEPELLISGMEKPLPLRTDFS
T2 sequence (Q86WV6 140-379 G230A/H232R/R293Q limits assumed): as the sequence (Q86WV6 140-379) above, with G91A, H93R, R154Q counted along it
Sequence of hSTING(WT) (Q86WV6 140-379 H232R): as the sequence (Q86WV6 140-379) above, with H93R counted along it
T1 sequence (Q86WV6 whole entry R71H/G230A/H232R/R293Q): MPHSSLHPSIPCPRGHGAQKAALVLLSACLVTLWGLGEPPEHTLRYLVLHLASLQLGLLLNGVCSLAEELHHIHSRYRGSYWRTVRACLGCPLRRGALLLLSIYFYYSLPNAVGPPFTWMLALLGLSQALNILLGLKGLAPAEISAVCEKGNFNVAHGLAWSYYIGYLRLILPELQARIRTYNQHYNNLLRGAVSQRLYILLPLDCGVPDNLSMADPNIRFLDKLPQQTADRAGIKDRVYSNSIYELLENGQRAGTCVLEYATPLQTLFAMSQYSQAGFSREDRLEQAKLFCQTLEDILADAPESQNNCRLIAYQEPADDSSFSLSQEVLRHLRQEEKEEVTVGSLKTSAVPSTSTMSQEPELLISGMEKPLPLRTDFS

activity relative to OH reference compound, in words (hSTING HAQ allele) | EC50 (hSTING HAQ allele) | hSTING Tm Shift REF (hSTING(REF)) | binding relative to OH reference compound, in words (hSTING(REF)) | hSTING Tm Shift HAQ (HAQ allele hSTING) | binding relative to OH reference compound, in words (HAQ allele hSTING; Table 4 comment, HAQ allele hSTING) | hSTING Tm Shift WT (hSTING(WT)) | binding relative to OH reference compound, in words (hSTING(WT); Table 4 comment, wild type hSTING) | SMILES
improved activity | 8 µM | 11.4 °C | improved binding | 22.6 °C | improved binding | 12.6 °C | improved binding | Nc1nc2c(ncn2[C@@H]2O[C@@H]3CO[P@@](=O)(S)O[C@H]4[C@@H](F)[C@H](n5cnc6c(=O)[nH]c(N)nc65)O[C@@H]4CO[P@@](=O)(S)O[C@H]3[C@H]2F)c(=O)[nH]1 [Compound 17, 9,9′-((2R,3R,3aR,5R,7aR,9R,10R,10aR,12R,14aR)-3,10-difluoro-5,12-dimercapto-5,12-dioxidooctahydro-2H,7H-difuro [3,2-d:3′,2′-j][1,3,7,9]tetraoxa[2,8]diphosphacyclododecine-2,9-diyl)bis(2-amino-1,9-dihydro-6H-purin-6-one)]
 | 99 µM | 4.3 °C |  | 11.4 °C |  | 6.4 °C |  | Nc1ncnc2c1ncn2[C@@H]1O[C@@H]2CO[P@](=O)(S)O[C@H]3[C@@H](F)[C@H](n4cnc5c(N)ncnc54)O[C@@H]3CO[P@@](=O)(S)O[C@H]2[C@H]1O [Compound 22a, (2R,3R,3aR,5S,7aR,9R,10R,10aS,12R,14aR)-2,9-bis(6-amino-9H-purin-9-yl)-3-fluoro-10-hydroxy-5,12-dimercaptooctahydro-2H,7H-difuro[3,2-d:3′,2′-j][1,3,7,9]tetraoxa[2,8]diphosphacyclododecine 5,12-dioxide]
 | 25 µM | 7.8 °C |  | 16.5 °C |  | 10.6 °C |  | Nc1nc2c(ncn2[C@@H]2O[C@@H]3CO[P@@](=O)(S)O[C@H]4[C@@H](O)[C@H](n5cnc6c(N)ncnc65)O[C@@H]4CO[P@](=O)(S)O[C@H]3[C@H]2F)c(=O)[nH]1 [Compound 23a, 2-amino-9-((2R,3R,3aR,5S,7aR,9R,10R,10aS,12R,14aR)-9-(6-amino-9H-purin-9-yl)-3-fluoro-10-hydroxy-5,12-dimercapto-5,12-dioxidooctahydro-2H,7H-difuro[3,2-d:3′,2′-j][1,3,7,9]tetraoxa[2,8]diphosphacyclododecin-2-yl)-1,9-dihydro-6H-purin-6-one]
 | 78 µM | 8.6 °C | improved binding | 14.7 °C |  | 10.6 °C |  | CC(C)C(=O)Nc1nc2c(ncn2[C@@H]2O[C@@H]3CO[P@@](=O)(S)O[C@H]4[C@@H](F)[C@H](n5cnc6c(NC(=O)c7ccccc7)ncnc65)O[C@@H]4CO[P@@](=O)(S)O[C@H]3[C@H]2F)c(=O)[nH]1 [Compound 25, N-(9-((2R,3R,3aR,5R,7aR,9R,10R,10aR,12R,14aR)-3,10-difluoro-9-(2-isobutyramido-6-oxo-1,6-dihydro-9H-purin-9-yl)-5,12-dimercapto-5,12-dioxidooctahydro-2H,7H-difuro[3,2-d:3′,2′-j][1,3,7,9]tetraoxa[2,8]diphosphacyclododecin-2-yl)-9H-purin-6-yl)benzamide]
 | > 150 µM | 5.4 °C |  | 8.9 °C |  | 6.8 °C |  | CC(C)C(=O)Nc1nc2c(ncn2[C@@H]2O[C@@H]3CO[P@](=O)(S)O[C@H]4[C@@H](F)[C@H](n5cnc6c(NC(=O)c7ccccc7)ncnc65)O[C@@H]4CO[P@@](=O)(S)O[C@H]3[C@H]2F)c(=O)[nH]1 [Compound 25a, N-(9-((2R,3R,3aR,5S,7aR,9R,10R,10aR,12R,14aR)-3,10-difluoro-9-(2-isobutyramido-6-oxo-1,6-dihydro-9H-purin-9-yl)-5,12-dimercapto-5,12-dioxidooctahydro-2H,7H-difuro[3,2-d:3′,2′-j][1,3,7,9]tetraoxa[2,8]diphosphacyclododecin-2-yl)-9H-purin-6-yl)benzamide]
improved activity | 23 µM | 10.5 °C | improved binding | 18.4 °C |  | 13.3 °C |  | CC(C)C(=O)Nc1nc2c(ncn2[C@@H]2O[C@@H]3CO[P@@](=O)(S)O[C@H]4[C@@H](F)[C@H](n5cnc6c(N)ncnc65)O[C@@H]4CO[P@@](=O)(S)O[C@H]3[C@H]2F)c(=O)[nH]1 [Compound 26, N-(9-((2R,3R,3aR,5R,7aR,9R,10R,10aR,12R,14aR)-9-(6-amino-9H-purin-9-yl)-3,10-difluoro-5,12-dimercapto-5,12-dioxidooctahydro-2H,7H-difuro[3,2-d:3′,2′-j][1,3,7,9]tetraoxa[2,8]diphosphacyclododecin-2-yl)-6-oxo-6,9-dihydro-1H-purin-2-yl)isobutyramide]
 | > 150 µM | 8.7 °C | improved binding | 10.1 °C |  | 8.9 °C |  | O=C(Nc1ncnc2c1ncn2[C@@H]1O[C@@H]2CO[P@@](=O)(S)O[C@H]3[C@@H](F)[C@H](n4cnc5c(NC(=O)c6ccccc6)ncnc54)O[C@@H]3CO[P@@](=O)(S)O[C@H]2[C@H]1F)c1ccccc1 [Compound 27, N,N′-(((2R,3R,3aR,5R,7aR,9R,10R,10aR,12R,14aR)-3,10-difluoro-5,12-dimercapto-5,12-dioxidooctahydro-2H,7H-difuro [3,2-d:3′,2′-j][1,3,7,9]tetraoxa[2,8]diphosphacyclododecine-2,9-diyl)bis(9H-purine-9,6-diyl))dibenzamide]
 | 10 µM | 7.8 °C |  | 27.7 °C |  | 14.3 °C |  | Nc1nc2c(ncn2[C@@H]2O[C@@H]3COP(=O)(O)O[C@H]4[C@@H](F)[C@H](n5cnc6c(N)ncnc65)O[C@@H]4COP(=O)(O)O[C@H]3[C@H]2F)c(=O)[nH]1 [Compound 30, 2-amino-9-((2R,3R,3aR,7aR,9R,10R,10aR,14aR)-9-(6-amino-9H-purin-9-yl)-3,10-difluoro-5,12-dihydroxy-5,12-dioxidooctahydro-2H,7H-difuro[3,2-d:3′,2′-j][1,3,7,9]tetraoxa[2,8]diphosphacyclododecin-2-yl)-1,9-dihydro-6H-purin-6-one]
